# pEC50, pIC50: −log10 of the molar value.
# Legend:
# [1] = Inhibition of Staphylococcus aureus TarO assessed as reversal of targocil-mediated bacterial growth inhibition
# [2] = Inhibition of Staphylococcus aureus TarO
# [3] = test system: Staphylococcus aureus subsp. aureus COL; experiment: Inhibition of methicillin-resistant Staphylococcus aureus COL TarO assessed as concentration of compound for potentiation of action of imipenem-mediated bacterial growth inhibition by 95 %
# [4] = Inhibition of Staphylococcus aureus TarO assessed as suppression of bacteriophageK-mediated cell lysis
# [5] = test system: Staphylococcus aureus; experiment: Inhibition of methicillin-resistant Staphylococcus aureus TarO assessed as potentiation of action of imipenem-mediated bacterial growth inhibition by measuring percentage of compound MITC95<=25 uM for 25 isolates; design: scale not given: the % may be the effect or the level left
# [6] = test system: Staphylococcus epidermidis; experiment: Inhibition of methicillin-resistant Staphylococcus epidermidis TarO assessed as potentiation of action of imipenem-mediated bacterial growth inhibition by measuring percentage of compound MITC95<=25 uM for 25 isolates; design: scale not given: the % may be the effect or the level left
# [7] = test system: Staphylococcus aureus; experiment: Antibacterial activity against methicillin-resistant Staphylococcus aureus COL; format: functional
# [8] = Oral bioavailability in rat at 2 mg/kg; format: ADME, organism-based; conditions: in vivo
# [9] = AUC (0 to 24 hrs) in rat at 2 mg/kg, po; format: ADME, organism-based; design: dose 2 mg/kg, time < 24 hr, route oral; conditions: in vivo
# [10] = Half life in rat at 2 mg/kg, po; format: ADME, organism-based; conditions: in vivo
compound,measurement,setting,value
CCN(C(=O)CCn1c2cc(CN(C)C)ccc2nc1[C@H]1CC[C@H](CC)CC1)C1CCCCC1,pEC50,[1],< 3.70
same,pIC50,[2],3.70
same,MITC95,[3],25 µM
same,pEC50,[4],< 3.70
CCN(C(=O)CCn1c2cc(CO)ccc2nc1[C@H]1CC[C@H](CC)CC1)C1CCCCC1,pEC50,[1],5.15
same,pIC50,[2],7.00
same,MITC95,[3],0.5 µM
same,pEC50,[4],5.27
same,Activity,[5],68%
CCN(C(=O)CCn1c2cc(C(=O)NC3CC3)ccc2nc1[C@H]1CC[C@H](CC)CC1)C1CCCCC1,pEC50,[1],4.05
same,pIC50,[2],3.70
same,MITC95,[3],50 µM
same,pEC50,[4],3.97
CCOC(=O)N1CCCC(c2nc3cc(F)ccc3n2CCC(=O)N(CC)C2CCCCC2)C1 (stereo not given),pEC50,[1],5.48
same,pIC50,[2],7.00
same,MITC95,[3],0.4 µM
same,pEC50,[4],5.48
same,Activity,[5],68%
CCN(C(=O)CCn1c2cc(F)ccc2nc1[C@H]1CC[C@H](CC)CC1)C1CCCCC1,Activity,[6],42%
same,pEC50,[1],6.15
same,pIC50,[2],7.70
same,MITC95,[3],0.1 µM
same,pEC50,[4],6.10
same,Activity,[5],68%
CCN(C(=O)CCn1c2cc(-c3ccccc3)ccc2nc1[C@H]1CC[C@H](CC)CC1)C1CCCCC1,Activity,[6],12%
same,pEC50,[1],7.52
same,pIC50,[2],8.40
same,MITC95,[3],0.2 µM
same,pEC50,[4],6.70
same,Activity,[5],72%
CCN(C(=O)CCn1c2cc(-c3cnn(C)c3)ccc2nc1[C@H]1CC[C@H](CC)CC1)C1CCCCC1,Activity,[6],67%
same,pEC50,[1],6.22
same,pIC50,[2],7.30
same,MITC95,[3],0.2 µM
same,pEC50,[4],6.15
same,Activity,[5],80%
CCN(C(=O)CCn1c2cc(-c3ccc(CO)cc3)ccc2nc1[C@H]1CC[C@H](CC)CC1)C1CCCCC1,pEC50,[1],< 3.70
same,pIC50,[2],6.52
same,MITC95,[3],4.7 µM
same,pEC50,[4],< 3.70
CCN(C(=O)CCn1c2ccc(F)cc2nc1[C@H]1CC[C@H](CC)CC1)C1CCCCC1,Activity,[6],54%
same,pEC50,[1],7.52
same,Activity,[7],> 200 µM
same,bioavailability,[8],15%
same,AUC,[9],0.9 µM·h
same,half-life,[10],5 h
same,pIC50,[2],7.40
same,MITC95,[3],0.004 µM
same,pEC50,[4],7.40
same,Activity,[5],76%
CCN(C(=O)CCn1c2cc(C(=O)O)ccc2nc1[C@H]1CC[C@H](CC)CC1)C1CCCCC1,pEC50,[1],< 3.70
same,pIC50,[2],3.83
same,MITC95,[3],200 µM
same,pEC50,[4],< 3.70
CCN(C(=O)CCn1c(C2CCCN(C(=O)OC(C)(C)C)C2)nc2cc(F)ccc21)C1CCCCC1 (stereo not given),Activity,[6],4%
same,pEC50,[1],5.82
same,pIC50,[2],7.22
same,MITC95,[3],0.5 µM
same,pEC50,[4],5.77
same,Activity,[5],64%
CCNC(=O)N1CCCC(c2nc3cc(F)ccc3n2CCC(=O)N(CC)C2CCCCC2)C1 (stereo not given),pEC50,[1],< 3.70
same,pIC50,[2],4.55
same,MITC95,[3],100 µM
same,pEC50,[4],< 3.70
CCN(C(=O)CCn1c(C2CCCN(C(C)=O)C2)nc2cc(F)ccc21)C1CCCCC1 (stereo not given),pEC50,[1],< 3.70
same,pIC50,[2],4.32
same,MITC95,[3],100 µM
same,pEC50,[4],< 3.70
CCN(C(=O)CCn1c2c(F)cccc2nc1[C@H]1CC[C@H](CC)CC1)C1CCCCC1,Activity,[6],75%
same,pEC50,[1],6.40
same,pIC50,[2],7.40
same,MITC95,[3],0.8 µM
same,pEC50,[4],6.05
same,Activity,[5],68%
CCN(C(=O)CCn1c2cc(-c3cn[nH]c3)ccc2nc1[C@H]1CC[C@H](CC)CC1)C1CCCCC1,pEC50,[1],4.62
same,pIC50,[2],3.70
same,MITC95,[3],6.3 µM
same,pEC50,[4],4.00
CCN(C(=O)CCn1c(C2CCCNC2)nc2cc(F)ccc21)C1CCCCC1 (stereo not given),pEC50,[1],< 3.70
same,pIC50,[2],4.78
same,MITC95,[3],200 µM
same,pEC50,[4],< 3.70
CCN(C(=O)CCn1c(-c2ccc(-n3ccnn3)cc2)nc2ccccc21)C1CCCCC1,pEC50,[1],< 3.70
same,pIC50,[2],5.42
same,MITC95,[3],19 µM
same,pEC50,[4],< 3.70
CC1(C)[C@@H]2CC[C@@]1(C)[C@@H](NC(=O)CCn1c(C3CCCCC3)nc3ccccc31)C2,pEC50,[1],5.22
same,Activity,[7],>200 µM
same,pIC50,[2],6.40
same,MITC95,[3],3 µM
same,pEC50,[4],5.52
CCN(C(=O)CCn1c2ccc(Br)cc2nc1[C@H]1CC[C@H](CC)CC1)C1CCCCC1,Activity,[7],>200 µM
same,pIC50,[2],> 6.40
CCN(C(=O)CCn1c(-c2ccc(OCC(F)(F)F)cc2)nc2ccccc21)C1CCCCC1,Activity,[6],4%
same,pEC50,[1],5.96
same,pIC50,[2],7.40
same,MITC95,[3],0.3 µM
same,pEC50,[4],5.92
same,Activity,[5],68%
CCN(C(=O)CCn1c2cc(-c3ccc(O)cc3)ccc2nc1[C@H]1CC[C@H](CC)CC1)C1CCCCC1,pEC50,[1],5.74
same,pIC50,[2],7.00
same,MITC95,[3],0.3 µM
same,pEC50,[4],4.54
same,Activity,[5],56%
CCN(C(=O)CCn1c2cccc(F)c2nc1[C@H]1CC[C@H](CC)CC1)C1CCCCC1,Activity,[6],58%
same,pEC50,[1],6.40
same,pIC50,[2],7.52
same,MITC95,[3],0.1 µM
same,pEC50,[4],6.10
same,Activity,[5],68%
CCN(C(=O)CCn1c(-c2ccc(C(=O)OC)cc2)nc2ccccc21)C1CCCCC1,pEC50,[1],5.37
same,pIC50,[2],7.00
same,MITC95,[3],1.2 µM
same,pEC50,[4],5.16
same,Activity,[5],64%
